In US20230183249A1, “NEW TRIAZINOINDOLE COMPOUNDS” (JANSSEN PHARMACEUTICA NV, priority 2020, published 2023):

How the values were obtained:
NLRP3 = molecular target: T1, NLRP3 (Homo sapiens, UniProt Q96P20); experiment: PBMC assay, IL-1β release after LPS stimulation; assay type: cell-based; conditions: human PBMCs, 100 ng/ml LPS for 6 hrs, IL-1β in supernatant via MSD; read-out: IL1β IC50
T1 construct: human peripheral blood mononuclear cells (PBMCs) were isolated from blood; endogenous in cells; host or cells: primary human PBMCs from healthy donors
Protocol: The activity of a compound according to the present invention can be assessed by in vitro methods.
Peripheral venous blood was collected from healthy individuals and human peripheral blood mononuclear cells (PBMCs) were isolated from blood by Ficoll-Histopaque (Sigma-Aldrich, A0561) density gradient centrifugation. After isolation, PBMCs were stored in liquid nitrogen for later use. Upon thawing, PBMC cell viability was determined in growth medium (RPMI media supplemented with 10% fetal bovine serum, 1% Pen-Strep and 1% L-glutamine). […] PBMCs were added at a density of 7.5×10^4 cells per well and incubated for 30 min in a 5% C02 incubator at 37° C. LPS stimulation was performed by addition of 100 ng/ml LPS (final concentration, Invivogen, tlrl-smlps) for 6 hrs followed by collection of cellular supernatant and the analysis of IL-1β (μM) and TNF cytokines levels (μM) via MSD technology according to manufacturers' guidelines (MSD, K151A0H).

TNF = experiment: PBMC assay, TNF cytokine levels after LPS stimulation; assay type: cell-based; conditions: human PBMCs, 100 ng/ml LPS for 6 hrs, TNF in supernatant via MSD
Protocol: Peripheral venous blood was collected from healthy individuals and human peripheral blood mononuclear cells (PBMCs) were isolated from blood by Ficoll-Histopaque (Sigma-Aldrich, A0561) density gradient centrifugation. After isolation, PBMCs were stored in liquid nitrogen for later use. Upon thawing, PBMC cell viability was determined in growth medium (RPMI media supplemented with 10% fetal bovine serum, 1% Pen-Strep and 1% L-glutamine). Compounds were spotted in a 1:3 serial dilution in DMSO and diluted to the final concentration in 30 μl medium in 96 well plates (Falcon, 353072). PBMCs were added at a density of 7.5×10^4 cells per well and incubated for 30 min in a 5% C02 incubator at 37° C. LPS stimulation was performed by addition of 100 ng/ml LPS (final concentration, Invivogen, tlrl-smlps) for 6 hrs followed by collection of cellular supernatant and the analysis of IL-1β (μM) and TNF cytokines levels (μM) via MSD technology according to manufacturers' guidelines (MSD, K151A0H).
The IC50 values (for IL-1β) and EC50 values (TNF) were obtained on compounds of the invention/examples, and are depicted in the following table: […]

T1 sequence (Q96P20 whole entry): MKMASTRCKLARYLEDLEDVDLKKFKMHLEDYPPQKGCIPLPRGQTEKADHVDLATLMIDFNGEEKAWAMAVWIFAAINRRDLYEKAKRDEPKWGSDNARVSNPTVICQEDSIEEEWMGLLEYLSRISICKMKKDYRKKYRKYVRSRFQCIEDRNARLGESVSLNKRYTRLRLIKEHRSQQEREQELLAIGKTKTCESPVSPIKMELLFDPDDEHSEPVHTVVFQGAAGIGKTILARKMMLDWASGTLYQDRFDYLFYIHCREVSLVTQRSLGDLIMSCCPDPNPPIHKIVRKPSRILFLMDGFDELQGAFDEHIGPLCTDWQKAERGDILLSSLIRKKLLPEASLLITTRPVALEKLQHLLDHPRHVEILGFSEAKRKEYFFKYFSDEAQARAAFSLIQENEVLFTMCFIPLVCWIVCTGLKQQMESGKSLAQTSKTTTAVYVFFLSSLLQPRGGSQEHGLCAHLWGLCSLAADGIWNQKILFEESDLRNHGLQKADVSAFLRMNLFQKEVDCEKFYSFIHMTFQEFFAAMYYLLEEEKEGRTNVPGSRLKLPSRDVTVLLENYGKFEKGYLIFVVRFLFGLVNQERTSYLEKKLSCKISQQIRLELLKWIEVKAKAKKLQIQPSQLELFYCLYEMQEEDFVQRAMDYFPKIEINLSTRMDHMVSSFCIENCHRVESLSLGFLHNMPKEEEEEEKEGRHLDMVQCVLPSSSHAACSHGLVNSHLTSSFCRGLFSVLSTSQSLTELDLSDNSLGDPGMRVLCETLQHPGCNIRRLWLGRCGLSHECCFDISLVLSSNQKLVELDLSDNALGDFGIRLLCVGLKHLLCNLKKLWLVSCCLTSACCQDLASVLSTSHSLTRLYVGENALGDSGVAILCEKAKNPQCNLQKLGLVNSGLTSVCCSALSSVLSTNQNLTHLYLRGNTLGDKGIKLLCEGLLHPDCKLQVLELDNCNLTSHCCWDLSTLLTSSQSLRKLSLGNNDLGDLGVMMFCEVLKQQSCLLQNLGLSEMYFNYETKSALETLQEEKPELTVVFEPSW

Row | Compound | IC50 (NLRP3) [µM] | EC50 (TNF) [µM] | melting point [°C]
1 | O=C(Cn1nc(Cl)n2c(cc3ccccc32)c1=O)Nc1ccncn1 [Final Cpd 1, 2-(4-chloro-1-oxo-[1,2,4]triazino[4,5-a]indol-2-yl)-N-pyrimidin-4-yl-acetamide] | 0.62 | > 10 | 
2 | O=C(Cn1ncn2c(cc3ccccc32)c1=O)Nc1ccncn1 [Final Cpd 2] | 1.89 | > 10 | 
3 | O=C(Cn1ncn2c(cc3ccc(F)cc32)c1=O)Nc1ccncn1 [Final Cpd 3] | 1.58 | > 10 | 
4 | O=C(Cn1nc(C2CCC2)n2c(cc3ccccc32)c1=O)Nc1ccncn1 [Final Cpd 4] | 1.54 | > 10 | 
5 | O=C(Cn1nc(C(F)F)n2c(cc3ccccc32)c1=O)Nc1ccncn1 [Final Cpd 5] | 0.47 | > 10 | 
6 | CC(F)(F)c1nn(CC(=O)Nc2ccncn2)c(=O)c2cc3ccccc3n12 [Final Cpd 6] | > 10 | > 10 | 
7 | N#Cc1nn(CC(=O)Nc2ccncn2)c(=O)c2cc3ccccc3n12 [Final Cpd 7] | 3.5 | > 10 | 
8 | O=C(Cn1nc(-c2ncco2)n2c(cc3ccccc32)c1=O)Nc1ccncn1 [Final Cpd 8] | 5.8 | > 10 | 
9 | O=C(Cn1nc(C(F)(F)F)n2c(cc3ccccc32)c1=O)Nc1ccncn1 [Final Cpd 9] | 1.91 | > 10 | 
10 | CCc1nn(CC(=O)NC2CC2)c(=O)c2cc3ccc(F)cc3n12 [Final Cpd 10] | 1.68 | > 10 | 277.81
11 | COc1ncccc1NC(=O)Cn1nc(C(C)C)n2c(cc3ccccc32)c1=O [Final Cpd 12] | 0.41 | > 10 | 
12 | Cc1cc(NC(=O)Cn2nc(C(C)C)n3c(cc4ccccc43)c2=O)ccn1 [Final Cpd 13] | 0.15 | > 10 | 
13 | CC(C)c1nn(CC(=O)Nc2ccncn2)c(=O)c2cc3ccccc3n12 [Final Cpd 14] | 0.17 | > 10 | 
14 | CCc1nn(CC(=O)Nc2cccnc2)c(=O)c2cc3ccccc3n12 [Final Cpd 15] | 0.63 | > 10 | 232.81
15 | CCc1nn(CC(=O)Nc2ccccc2OC)c(=O)c2cc3ccccc3n12 [Final Cpd 17] | 2.8 | > 10 | 216.79
16 | O=C(Cn1nc(C2CC2)n2c(cc3ccccc32)c1=O)Nc1ccncn1 [Final Cpd 18] | 0.76 | > 10 | 
17 | CN(C)c1nn(CC(=O)NC2CCOCC2)c(=O)c2cc3ccccc3n12 [Final Cpd 20] | 0.31 | > 10 | 
18 | CN(C)c1nn(CC(=O)N[C@H]2CC[C@H](O)CC2)c(=O)c2cc3ccccc3n12 [Final Cpd 21] | 0.39 | > 10 | 
19 | CC(O)c1nn(CC(=O)Nc2ccncn2)c(=O)c2cc3ccccc3n12 (stereo not shown) [Final Cpd 22, 2-[4-(1-hydroxyethyl)-1-oxo-[1,2,4]triazino[4,5-a]indol-2-yl]-N-pyrimidin-4-yl-acetamide] | 1.44 | > 10 | 
20 | Cc1nn(CC(=O)NC2CC2)c(=O)c2cc3ccccc3n12 [Final Cpd 23, N-cyclopropyl-2-(4-methyl-1-oxo-[1,2,4]triazino[4,5-a]indol-2-yl)acetamide] | 9.12 | > 10 | 
21 | COc1nn(CC(=O)NC2CCOCC2)c(=O)c2cc3ccccc3n12 [Final Cpd 24, 2-(4-methoxy-1-oxo-[1,2,4]triazino[4,5-a]indol-2-yl)-N-tetrahydropyran-4-yl-acetamide] | 1.17 | > 10 | 
22 | O=C(Cn1nc(C2CCCC2)n2c(cc3ccccc32)c1=O)NC1CCOCC1 [Final Cpd 25] | > 10 | > 20 | 

Row | Compound | IC50 (NLRP3) [µM] | EC50 (TNF) [µM] | melting point [°C]
23 | CC(C)Cc1nn(CC(=O)NC2CCOCC2)c(=O)c2cc3ccccc3n12 [Final Cpd 26] | > 10 | > 10 | 
24 | O=C(Cn1nc(-c2cccs2)n2c(cc3ccccc32)c1=O)NC1CCOCC1 [Final Cpd 27] | > 10 | > 10 | 
25 | O=C(Cn1nc(C2CCCCC2)n2c(cc3ccccc32)c1=O)NC1CCOCC1 [Final Cpd 28] | > 10 | > 10 | 
26 | CC(C)c1nn(CC(=O)NC2CC2)c(=O)c2cc3ccccc3n12 [Final Cpd 29] | 0.66 | > 10 | 
27 | CCc1nn(CC(=O)Nc2ccncn2)c(=O)c2cc3ccc(C)cc3n12 [Final Cpd 30] | > 10 | > 10 | 248.91
28 | CCc1nn(CC(=O)Nc2ccncc2)c(=O)c2cc3ccc(F)cc3n12 [Final Cpd 31] | 0.79 | > 10 | 
29 | CCc1nn(CC(=O)NC2CCOCC2)c(=O)c2cc3ccc(C)cc3n12 [Final Cpd 32] | > 10 | > 10 | 264.11
30 | CCc1nn(CC(=O)Nc2ccncn2)c(=O)c2cc3ccc(F)cc3n12 [Final Cpd 33] | 0.31 | > 10 | 
31 | CCc1nn(CC(=O)NC2CCOCC2)c(=O)c2cc3cc(C)ccc3n12 [Final Cpd 34] | 7.24 | > 10 | 274.18
32 | CCc1nn(CC(=O)Nc2ccncn2)c(=O)c2cc3cc(F)ccc3n12 [Final Cpd 36] | 7.24 | > 10 | 
33 | CCc1nn(CC(=O)Nc2ccncn2)c(=O)c2cc3cc(C)ccc3n12 [Final Cpd 37] | > 10 | > 10 | 
34 | CCc1nn(CC(=O)N[C@H]2C[C@@](C)(O)C2)c(=O)c2cc3ccc(F)cc3n12 [Final Cpd 39, 2-{4-ethyl-7-fluoro-1-oxo-[1,2,4]triazino[4,5-a]indol-2(1H)-yl}-N-((1s,3s)-3-hydroxy-3-methylcyclobutyl)acetamide] | 0.176 | > 20 | 
35 | CN(C)c1nn(CC(=O)N[C@H]2C[C@@](C)(O)C2)c(=O)c2cc3ccc(F)cc3n12 [Final Cpd 40] | 0.237 | > 20 | 
36 | CC(C)c1nn(CC(=O)N[C@H]2C[C@@](C)(O)C2)c(=O)c2cc3ccccc3n12 [Final Cpd 41] | 0.052 | 15.4 | 
37 | CC(C)c1nn(CC(=O)N[C@H]2C[C@@](C)(O)C2)c(=O)c2cc3ccc(F)cc3n12 [Final Cpd 42] | 0.077 | 10.9 | 
38 | CCc1nn(CC(=O)N[C@H]2C[C@@](C)(O)C2)c(=O)c2cc3ccccc3n12 [Final Cpd 43] | 0.086 | > 20 | 
39 | CN(C)c1nn(CC(=O)N[C@H]2C[C@@](C)(O)C2)c(=O)c2cc3ccccc3n12 [Final Cpd 44] | 0.057 | > 20 | 
40 | CC(C)c1nn(CC(=O)Nc2ccc3nncn3c2)c(=O)c2cc3ccc(F)cc3n12 [Final Cpd 46] | 0.044 | > 20 | 
41 | CN(C)c1nn(CC(=O)Nc2ccc3nncn3c2)c(=O)c2cc3ccccc3n12 [Final Cpd 47] | 0.052 | > 20 | 
42 | CCc1nn(CC(=O)Nc2ccc3nncn3c2)c(=O)c2cc3ccccc3n12 [Final Cpd 48] | 0.122 | > 20 | 
43 | CC(C)c1nn(CC(=O)Nc2ccc3nncn3n2)c(=O)c2cc3ccccc3n12 [Final Cpd 49, N-([1,2,4]triazolo[4,3-b]pyridazin-6-yl)-2-(4-isopropyl-1-oxo-[1,2,4]triazino[4,5-a]indol-2(1H)-yl)acetamide] | 0.025 | 3.94 | 
44 | COc1nn(CC(=O)NC2CC2)c(=O)c2cc3ccccc3n12 [Final Cpd 50] | 4.07 | > 10 | 
